Laboratory results published in patent US20240025924A1, “HETEROCYCLE SUBSTITUTED KETONE DERIVATIVE, AND COMPOSITION AND MEDICINAL USE THEREOF” (SHANGHAI HAIYAN PHARMACEUTICAL TECHNOLOGY CO., LTD., priority 2021, published 2024).

How the values were obtained:
SHP-2 enzyme = target: T1, SHP-2 enzyme (Homo sapiens, UniProt Q06124); experiment: Phosphatase activity assay (Homogeneous Full Length SHP-2 Assay Kit, DiFMUP substrate); type: biochemical; conditions: full length SHP-2 activated with 0.5 μM SHP-2 activating Peptide; 1 hour co-incubation; DiFMUP 50 μM, 30 min
T1 construct: Homogeneous Full Length SHP-2 Assay Kit (BPS Bioscience #79330); purchased BPS Bioscience 79330
T1 sequence (Q06124 1-593): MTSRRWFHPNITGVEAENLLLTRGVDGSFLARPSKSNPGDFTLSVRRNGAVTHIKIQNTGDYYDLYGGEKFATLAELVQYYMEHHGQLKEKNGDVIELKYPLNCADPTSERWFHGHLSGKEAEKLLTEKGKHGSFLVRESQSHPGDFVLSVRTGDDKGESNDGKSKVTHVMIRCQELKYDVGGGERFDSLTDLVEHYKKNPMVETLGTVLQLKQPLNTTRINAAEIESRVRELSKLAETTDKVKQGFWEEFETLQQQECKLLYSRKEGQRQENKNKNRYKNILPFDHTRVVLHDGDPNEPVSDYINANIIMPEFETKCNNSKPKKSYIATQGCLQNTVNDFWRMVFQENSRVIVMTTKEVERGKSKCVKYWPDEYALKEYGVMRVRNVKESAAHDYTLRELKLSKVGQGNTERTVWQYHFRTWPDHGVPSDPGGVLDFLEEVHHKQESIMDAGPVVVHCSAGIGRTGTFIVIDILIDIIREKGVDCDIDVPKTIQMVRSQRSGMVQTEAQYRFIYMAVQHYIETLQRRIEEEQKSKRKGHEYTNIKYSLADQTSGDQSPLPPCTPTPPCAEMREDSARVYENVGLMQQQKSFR
Protocol: IC50 values were assayed using Homogeneous Full Length SHP-2 Assay Kit (BPS Bioscience #79330), which uses 6,8-difluoro-4-methylumbelliferone phosphate (DiFMUP) as the reaction substrate. SHP2 enzyme solution (diluted to 0.04 ng/μL with 1*buffer) was mixed with 0.5 μM SHP-2 activating Peptide in a 1*buffer solution containing 2.5 mM DTT to activate PTP. At the same time, DMSO (0.1% (V/V)) or the compounds (concentration: 0.5 nM to 1 μM) were added, mixed and co-incubated for 1 hour. DiFMUP (50 μM, total reaction system volume of 20 μL) was added, and the reaction was started. After 30 min of incubation, the fluorescence intensity of the reaction system (excitation wavelength: 350 nm, emission wavelength: 460 nm) was measured by Tecan Infinite M1000.

MV-4-11 cell = experiment: Cell proliferation assay (Cell Titer-Glo); type: cell-based; conditions: Homo sapiens, MV4-11, 96 h, inhibition of MV-4-11 cell proliferation; Cell Titer-Glo on day 4
Protocol: MV 411 cells (20000 cells/well) were inoculated and cultured in 96 (Corning #3916) well plates, and the medium was 80 μL/well (IMDM with 10% fetal bovine serum (FBS), Gibco #10099-141C). After 24 hours of incubation, 20 μL of the compounds of the present invention configured to different concentrations (DMSO final concentration of 0.1% (V/V)) were added. On day 4, 60 μL of Cell Titer-Glo (Promega #G7558) was added to each well and mixed at 80 rpm, 25° C., 15 min, and the fluorescence values were detected by Victor X5 (PE).

Nc1nc(N2CCC3(CC2)Cc2ccncc2C3N)cnc1C(=O)N1CCCn2nccc21 (centres unmarked) [Compound 79]
IC50 (SHP-2 enzyme): 14 nM | IC50 (MV-4-11 cell): 257 nM

CNc1ccc2c(n1)CCN2C(=O)c1nc(C)c(N2CCC3(CC2)Cc2ccccc2C3N)nc1N (centres unmarked) [Compound 103]
IC50 (SHP-2 enzyme): 13 nM | IC50 (MV-4-11 cell): 65 nM

Cc1nc(N2CCC3(CC2)Cc2ccccc2C3N)c(CO)nc1C(=O)N1Cc2sc(N)nc2C(F)(F)C1 (centres unmarked) [Compound 112]
IC50 (SHP-2 enzyme): 14 nM | IC50 (MV-4-11 cell): 18 nM

Cn1c(N2CCC3(CC2)Cc2ccccc2C3N)nc(N)c(C(=O)N2CCCn3nccc32)c1=O (centres unmarked) [Compound 40]
IC50 (SHP-2 enzyme): 59 nM | IC50 (MV-4-11 cell): 59 nM

CC1CN(C(=O)c2ncc(N3CCC4(CC3)Cc3cc(F)ccc3C4N)nc2N)c2ccc(N)nc21 (centres unmarked) [Compound 88]
IC50 (SHP-2 enzyme): 5 nM | IC50 (MV-4-11 cell): 235 nM

Nc1nc(N2CCC3(CC2)Cc2ccccc2C3N)c(Cl)nc1C(=O)N1CCCn2nccc21 (centres unmarked) [Compound 28]
IC50 (SHP-2 enzyme): 4 nM | IC50 (MV-4-11 cell): 44 nM

Nc1nc(N2CCC3(CC2)Cc2ccccc2C3N)cnc1C(=O)N1CCCn2nccc21 (centres unmarked) [Compound 3]
IC50 (SHP-2 enzyme): 13 nM | IC50 (MV-4-11 cell): 54 nM

Nc1nc(N2CCC3(CC2)Cc2ccc(F)cc2C3N)cnc1C(=O)N1CCc2ncsc2C1 (centres unmarked) [Compound 17]
IC50 (SHP-2 enzyme): 4 nM | IC50 (MV-4-11 cell): 17 nM

Nc1nc2c(s1)CN(C(=O)c1nc(Cl)c(N3CCC4(CC3)Cc3ccccc3C4N)nc1N)CC2 (centres unmarked) [Compound 83]
IC50 (SHP-2 enzyme): 4 nM | IC50 (MV-4-11 cell): 17 nM

Nc1nc(N2CCC3(CC2)Cc2c(F)cccc2C3N)nnc1C(=O)N1CCCn2nccc21 (centres unmarked) [Compound 77]
IC50 (SHP-2 enzyme): 11 nM | IC50 (MV-4-11 cell): 150 nM

Cc1ccc2c(c1)C(N)C1(CCN(c3nc(N)c(C(=O)N4CCc5nc(N)ccc54)nc3C)CC1)C2 (centres unmarked) [Compound 104]
IC50 (SHP-2 enzyme): 10 nM | IC50 (MV-4-11 cell): 58 nM

Cc1cc2c(cc1C)C(N)C1(CCN(c3cnc(C(=O)N4CCc5nc(N)sc5C4)c(N)n3)CC1)C2 (centres unmarked) [Compound 99]
IC50 (SHP-2 enzyme): 10 nM | IC50 (MV-4-11 cell): 46 nM

Nc1ccc2c(n1)CCN2C(=O)c1cnc(N2CCC3(CC2)Cc2ccccc2C3N)c(CO)n1 (centres unmarked) [Compound 68]
IC50 (SHP-2 enzyme): 7 nM | IC50 (MV-4-11 cell): 125 nM

Nc1ccc2c(n1)CCN2C(=O)c1ncc(N2CCC3(CC2)Cc2ccc(Cl)cc2C3N)nc1N (centres unmarked) [Compound 91]
IC50 (SHP-2 enzyme): 3 nM | IC50 (MV-4-11 cell): 61 nM

Nc1nc2c(s1)CN(C(=O)c1ncc(N3CCC4(CC3)Cc3ccc(F)cc3C4N)nc1N)CC2(F)F (centres unmarked) [Compound 116]
IC50 (SHP-2 enzyme): 5 nM | IC50 (MV-4-11 cell): 6 nM

Nc1nc2c(cc1F)N(C(=O)c1ncc(N3CCC4(CC3)Cc3ccccc3C4N)nc1N)CC2 (centres unmarked) [Compound 109]
IC50 (SHP-2 enzyme): 3 nM | IC50 (MV-4-11 cell): 58 nM

CC1CN(C(=O)c2ncc(N3CCC4(CC3)Cc3ccccc3C4N)nc2N)c2ccc(N)nc21 (centres unmarked) [Compound 89]
IC50 (SHP-2 enzyme): 4 nM | IC50 (MV-4-11 cell): 127 nM

Nc1nc(N2CCC3(CC2)Cc2ccccc2C3N)cnc1C(=O)N1CCc2ncsc2C1 (centres unmarked) [Compound 10]
IC50 (SHP-2 enzyme): 4 nM | IC50 (MV-4-11 cell): 44 nM

Cc1ccc2c(c1)C(N)C1(CCN(c3ncc(C(=O)N4Cc5sc(N)nc5C(F)(F)C4)nc3CO)CC1)C2 (centres unmarked) [Compound 113]
IC50 (SHP-2 enzyme): 6 nM | IC50 (MV-4-11 cell): < 5 nM

CC1(C)CN(C(=O)c2ncc(N3CCC4(CC3)Cc3ccccc3C4N)nc2N)Cc2scnc21 (centres unmarked) [Compound 54]
IC50 (SHP-2 enzyme): 8 nM | IC50 (MV-4-11 cell): 206 nM

COc1ccc2c(c1)CC1(CCN(c3cnc(C(=O)N4CCCn5nccc54)c(N)n3)CC1)C2N (centres unmarked) [Compound 76]
IC50 (SHP-2 enzyme): 10 nM | IC50 (MV-4-11 cell): 191 nM

CNc1ccc2c(n1)CCN2C(=O)c1ncc(N2CCC3(CC2)Cc2ccccc2C3N)nc1N (centres unmarked) [Compound 92]
IC50 (SHP-2 enzyme): 4 nM | IC50 (MV-4-11 cell): 119 nM

Nc1ccc2c(n1)CCN2C(=O)c1ncc(N2CCC3(CC2)Cc2ccc(F)cc2C3N)nc1N (centres unmarked) [Compound 95]
IC50 (SHP-2 enzyme): 3 nM | IC50 (MV-4-11 cell): 176 nM

Nc1nc(N2CCC3(CC2)Cc2ccc(F)cc2C3N)cnc1C(=O)N1CCCn2nccc21 (centres unmarked) [Compound 8]
IC50 (SHP-2 enzyme): 5 nM | IC50 (MV-4-11 cell): 111 nM

Nc1nc2c(s1)CN(C(=O)c1ncc(N3CCC4(CC3)Cc3ccc(C5CC5)cc3C4N)nc1N)CC2 (centres unmarked) [Compound 110]
IC50 (SHP-2 enzyme): 9 nM | IC50 (MV-4-11 cell): 21 nM
